Structures are written as SMILES.

The subject of data set [1] is ovalbumin-induced murine model of asthma. Put plainly: Lung resistance / airway hyper-responsiveness to methacholine in OVA asthma model. To be noted: oral. The class given is in vivo, BALB/c mice. As to the method:
(§1) All experimental procedures were carried out in accordance with the NIH Guidelines for the Care and Use of Laboratory Animals. Specific pathogen-free (SPF) male BALB/c mice (6-7 weeks of age, 18-22 grams), routinely screened serologically for relevant respiratory pathogens, were maintained in an animal housing facility for 1 week before use and given access to food and water ad libitum. Animals were randomly assigned to the indicated experimental groups, and sensitized with two intraperitoneal (IP) injections (20 μg ovalbumin (OVA) emulsified in 2 mg aluminum hydroxide (an adjuvant) in 200 μl phosphate buffer saline (PBS), pH 7.4), on days 1 and 10.
(§2) After another week, the animals were challenged by exposure to ovalbumin (OVA) aerosol (1%, w/v, in PBS) for 30 minutes each day on days 17, 18 and 19, in order to elicit an inflammatory reaction in the lungs characterized by airway hyper-responsiveness (AHR), an influx of inflammatory cells (particularly eosinophils), and increased pulmonary levels of various cytokines and transforming growth factors, protein nitration and lipid peroxidation.
(§3) The features of allergic inflammation typically reached their peak a day or two after the final exposure. Mice were then subjected to one of the following treatments: (i) sham-sensitization plus challenge with PBS; (ii) positive control-sensitization plus challenge with OVA; (iii) sensitization plus challenge with OVA and various indicated treatments (e.g., with nitroxide or dexamethasone), including different modes (oral, IP, intranasal, inhalation), time windows (sensitization stage, challenge stage, both stages and after the last challenge), and doses of nitroxide administration.
One day after the final challenge, respiratory activity and airway hyper-responsiveness (AHR) of experimental animals were evaluated. Whole body plethysmographs for enhanced pause (Penh) measurements are often used for assessment of AHR. However, critics have questioned the validity of Penh measurements, which supposedly measure airway obstruction of live non-sedated mice, stating that it is likely to measure the distress of the animal rather than actual obstruction. […] In brief, mice were sedated with an intraperitoneal (IP) injection of xylazine hydrochloride and anaesthetized with IP injection of pentobarbital. Subsequently, the animals were tracheostomized using an 18 gauge cannula, ventilated with a FlexiVent™ apparatus (SCIREQ), and muscle paralysis was induced with pancuronium bromide. The mice were ventilated in a quasi-sinusoidal fashion with the following settings: a tidal volume of 10 ml/kg, maximum inflation pressure of […] (30 cm H2O), a positive end expiratory pressure (PEEP) of 3 millibar and a frequency of 150 per minute. Following an equilibration period of 3 minutes of tidal ventilation, two lung inflations to a transrespiratory pressure of 2.5 millibar were performed and baseline measurements were taken. Airway hyper-responsiveness (AHR) was determined by aerosolizing increasing concentrations of methacholine. After baseline determination of airway resistance, mice were challenged with 0 to 64 mg/mL methacholine nebulized directly into the ventilatory circuit using an AeroNeb™ Lab nebulizer system (SCIREQ). Two models of respiratory mechanics were used to assess lung resistance: a linear 1st-order single compartment model and a constant-phase model. All data points were collected with FlexiVent™ software (SCIREQ). […]

Data set [2] is described as follows: Water-solubility. The note with it: compared with 3-CP, data not shown.
In data set [3] the test system is ovalbumin-induced murine model of asthma. In words: Inflammatory cell counts in BAL fluid in OVA asthma model. In kind it is in vivo, BALB/c mice. The protocol:
as §1, §2, §3
(§4) Bronchoalveolar lavage (BAL) fluid (also referred to herein as “BALf”) and bronchial submucosal inflammation are characteristic features of asthma. Mice were euthanized with an overdose of 50 mg/kg pentobarbital and ice-cold phosphate buffer saline (PBS) (0.6 ml) was instilled into the lungs. BAL fluid was obtained by three aspirations via tracheal cannulation, centrifuged, and the supernatant collected and stored at −70° C. Cell pellets were re-suspended in PBS and 100 μl aliquots placed onto slides and centrifuged (200 g, 4° C., 10 minutes) in a cytospin machine. Induction of oxidative stress was evaluated using a 2′,7′-dichlorofluorescein fluorescence assay, and total IgE, IgG2a, panel of cytokines, transforming growth factors, collagen, protein nitration and lipid peroxidation were measured using commercial kits according to the manufacturer's recommendations. A Sircol™ collagen assay kit was obtained from Biocolor Life Sciences Assays, a protein nitration assay kit was obtained from Abcam, and other assay kits were obtained from PeproTech Asia.
(§5) Control and experimental groups contained 10 mice each. The effects of the nitroxides were investigated by feeding the mice ad libitum a diet of nitroxide-containing chow (1 weight percent) during both ovalbumin (OVA)-induced sensitization and challenging periods (days −2-19), during the sensitization period (days −2-11) or challenge period (days 13-19). Nitroxide-containing chow were prepared by dissolving 500 grams chow in a minimum volume of water containing 5 grams nitroxide and 5 grams commercial chicken soup powder, preparing the chow and drying it at 37° C. (animals were reluctant to eat nitroxide-containing chow until chicken soup powder was added).
3-CP was also administered using 3 daily intraperitoneal (IP) injections (200 μl, 0.15 M, ˜300 mg/kg) 0.5 hour prior to the challenge with OVA aerosol, or by nasal instillation (50 μl, 0.3 M, ˜150 mg/kg) twice a day 0.5 hour prior to the challenge with OVA aerosol and 6 hours later without exceeding its maximally tolerated dose, which has been previously established to be 300-500 mg/kg. Both 3-CP and TPL were non-toxic when administered orally or via IP injection to untreated OVA-challenged mice for 22 days. […]

Data set [4] can be described thus: Nitroxide concentration measurement by EPR in mouse blood and tissue. To be noted: mice fed chow with 0.7 weight percent 3-CPT, FIG. 12. In kind it is in vivo.
The nature of data set [5]: Toxicity / maximally tolerated dose in mice. The class given is in vivo. The note with it: administered orally or via IP injection to untreated OVA-challenged mice for 22 days. As to the method: (§6) 3-CP was also administered using 3 daily intraperitoneal (IP) injections (200 μl, 0.15 M, ˜300 mg/kg) 0.5 hour prior to the challenge with OVA aerosol, or by nasal instillation (50 μl, 0.3 M, ˜150 mg/kg) twice a day 0.5 hour prior to the challenge with OVA aerosol and 6 hours later without exceeding its maximally tolerated dose, which has been previously established to be 300-500 mg/kg. Both 3-CP and TPL were non-toxic when administered orally or via IP injection to untreated OVA-challenged mice for 22 days.

A short description of data set [6]: Nitroxide concentration measurement by EPR in mouse blood and tissue. The class given is in vivo. To be noted: mice. The protocol:
Electron paramagnetic resonance (EPR) spectroscopy was used to determine residual levels of nitroxide in mouse tissue. Blood samples or tissue samples were diluted with 0.5 ml phosphate buffer (40 mM, pH 7.4) or water, inserted into a flexible capillary placed in a quartz tube installed within the EPR spectrometer cavity and assayed for residual nitroxide. A similar procedure was used to determine the residual nitroxide in tissue homogenates of various organs, which were corrected for blood contamination spectrophotometrically by following the absorption of oxyhemoglobin at 400-600 nm. Measured EPR signals were compared to those of a nitroxide standard solution.
In order to determine total hydroxylamine and nitroxide concentrations, 2 mM K3Fe(CN)6 was added to samples in order to oxidize hydroxylamines to the respective nitroxide, and the nitroxide level was determined by EPR spectroscopy as described hereinabove.
as §5, §6

Data set [7] deals with IL-13. In words: IL-13 level in OVA asthma model. In kind it is in vivo, BALB/c mice. To be noted: OVA IP-Dex: dexamethasone intraperitoneal (1 mg/kg); lung tissue (table title). The protocol:
as §1, §2, §4
The efficacy of oral administration of 3-CP (1 weight percent in chow) during the sensitization period and/or challenge period was then compared to IP injection (˜300 mg/kg, 0.5 hour before the OVA challenge) or intranasal instillation (˜150 mg/kg, 0.5 hour before the OVA and 6 hours later) of 3-CP, as well as to dexamethasone treatment (1 mg/kg, 3 daily IP injections, 0.5 hour prior to the challenge with OVA aerosol).
In order to assess the effect of 3-CP on inflammatory signaling pathways, […] to procedures described hereinabove, upon oral, intranasal or IP administration of 3-CP.

As to `CC1(C)C=C(C(N)=O)C(C)(C)N1[O]` [3-CPT, 3-carbamoyl-2,2,5,5-tetramethyl-3-pyrrolin-1-oxyl], the “effect on methacholine-induced lung resistance” value in data set [1] (0.7 weight percent 3-CPT in chow, FIG. 14) is listed as “reduced methacholine-induced lung resistance, albeit to a considerably lesser degree than 3-CP”. For the same molecule, the water-solubility entry in data set [2] is listed as “lower water-solubility than 3-CP”. Moreover, the “inhibiting increases in inflammatory cell levels (especially eosinophil levels) in asthmatic animals” value in data set [3] (3-CPT oral (0.7 weight percent in chow) or intraperitoneal (300 mg/kg), FIG. 13) is “effective”. The “effect on OVA-induced increase of total cell counts in BAL fluid” value in data set [3] (oral, 0.7 weight percent 3-CPT in chow, FIG. 13) is given as “effective in reversing OVA-induced increase of total cell counts”. In data set [4], the “reduction to the respective hydroxylamine in the blood” value is given as “most of the 3-CPT in the blood was reduced to the respective hydroxylamine”.
Turning to `CC1(C)CC(O)CC(C)(C)N1[O]` [TPL, 4-Hydroxy-2,2,6,6-tetramethyl-piperidin-1-oxyl, reference compound], the toxicity result in data set [5] is on record as “non-toxic”. In addition, the “effect on methacholine-induced increase in lung resistance” value in data set [1] (1 weight percent in chow, FIG. 3) is “suppressed methacholine-induced increase in lung resistance”. Also, the “residual concentration of the respective hydroxylamine compared with the nitroxide” value in data set [6] (data not shown) was “higher than those of the therapeutically active nitroxide free radical”. In addition, in data set [6] (oral administration (1 weight percent nitroxide in chow), FIG. 1), the “residual concentration of nitroxide in blood” value is “detectable levels”. In addition, the “effect on OVA-induced increase in total inflammatory cell and eosinophil counts in BAL fluid” value in data set [3] (oral, 1 weight percent in chow, FIG. 4) was “attenuated the increase in total inflammatory cell counts and eosinophil counts”.
The molecule `C[C@@H]1C[C@H]2[C@@H]3CCC4=CC(=O)C=C[C@]4(C)[C@@]3(F)[C@@H](O)C[C@]2(C)[C@@]1(O)C(=O)CO` [dexamethasone, Dexamethasone, reference compound] registered an IL-13 level in data set [7] of 1.80 ng/mg.

These data come from patent US10441568B2, “Nitroxide radicals for the treatment of diseases of the respiratory tract” (priority 2015, dated 2019).
